Measured values reported in US20180230160A1, “2-AMINO-7A-PHENYL-3,4,4A,5,7,7A-HEXAHYDROFURO[3,4-B]PYRIDINES AS BACE1 INHIBITORS” (H. Lundbeck A/S, priority 2015, published 2018).
Read-outs that look alike come from different tables or passages of the source.

Tests used:
Aβ40 peptide = experiment: Assessment of Aβ peptide levels in rat brain and plasma following BACE1 inhibition (Aβ40 ELISA); type: in vivo; details: 3 hours post dose, vs vehicle
Description: Assessment of Aβ Peptide Levels in Rat Brain and Plasma Following BACE1 Inhibition. Animals.
(§1) Young adult Male Sprague Dawley rats of approximately 250 g weight were purchased from Charles River and received 0-30 mg/kg of vehicle (10% HP betaCD+1M MeSO4, pH 2.5) or test compounds (dissolved in vehicle) only by oral gavage (p.o). The compounds are dosed at a volume of 5 ml/kg. Cohorts of 5-10 animals were established for each treatment condition.
(§2) At T=180 minutes after initial dosing the animals were stunned and decapitated with a guillotine. Trunk-blood was sampled in EDTA coated tubes after decapitation of the animal. The blood was centrifuged at 2200G at 4° C. for 15 minutes and the plasma was collected and frozen at −80° C. The blood was aliquoted for Aβ ELISA and DMPK analysis. Immediately following sacrifice, the brain was extracted and split into 2 halves. The right hemibrains were snap frozen on dry ice and stored at −80° C. The left half was dissected; with the front forebrain taken for Aβ ELISA and the remainder used for DMPK analysis. These samples were also snap frozen on dry ice and stored at −80° C. until use for analysis.
The cortex samples were thawed slightly on wet ice before they were homogenized with a small volume dispersing instrument (T10 basic ULTRA-TURRAX®) which was set at speed 5 for approximately 5-7 sec. The tissue was processed in a 10 times volume of the weight, for example 100 mg of tissue was homogenized in 1000 μL of Homogenization buffer. Homogenization buffer: 50 ml Milli Q water+50 nM NaCl+0.2% Diethylamin (DEA)+1 tablet of Complete Protease inhibitor cocktail+1 nM 4-(2-aminoethyl) benzenesulfonyl fluoride hydrochloride irreversible serine protease inhibitor (AEBSF).
After homogenization 450 μL aliquots of the samples are collected into a 1.5 ml Eppendorf tube and placed on wet ice, 0.5% NP-40 (50 ul) was added to all samples and then they were incubated on ice for 30 min. After which all samples were sonicated using an Ultrasonic homogenizer with 20 kHz homogeneous sound (SONOPLUS HD2070, Bandelin Electronic) 10 pulse set at 12-13% power to extract all the Aβ species. The samples were then centrifuged (Ole Dich 157 MPRF Micro centrifuge) at 20000G for 20 minutes at 4° C. After centrifugation 285 μL of the supernatant was pipetted into 600 μL microtubes tubes and neutralized with 15 μL of 1M Tris-HCL buffer.
WAKO 294-62501 Human/Rat Abeta amyloid (40) kit was used for all ELISA analyses. 30 μL plasma samples or 30 μL of the cortex supernatants generated as described above were placed in 600 μL microtubes tubes on wet ice. To this 30 μL of 8M urea (AppliChem A1049, 9025) was added to generate a 2-fold dilution. Both plasma and cortex supernatants were incubated on ice for 30 min. Standard rows were prepared from the standard peptide stock provided in the kit and standard diluent containing 1.6M urea (200 μL 8M urea+800 μL of standard diluent) and 0.8M urea (400 μL 8M Urea+3600 μL Standard diluent). A serial 2-fold dilution of Aβ40 from 100 pmol/ml to 0 pmol/L was prepared for the assay.
After incubation with urea, all samples were further diluted by addition of 5 times standard diluent from the Kit. This was done by adding 240 μL Standard Diluent to 60 μL sample/urea mixture, which was then mixed well. 100 μL of each diluted sample was pipetted into designated wells of the ELISA plate in duplicates. The plate was then covered and incubated overnight at 4° C. The following day, the ELISA kit was brought to room temperature before use. The incubated plate was washed 5 times with the 20× washing solution diluted in Milli Q water. 100 μL HRP-conjugate was applied to each well, and the plate was covered and incubates at 4° C. for 1 hr. The wash was repeated again for 5 times. 100 μL 3,3′,5,5′-Tetramethylbenzidine (TMB) solution was applied to each well and the plate was covered and incubated in the dark at room temperature for 30 minutes. […]

P-gp (MDR1) = experiment: MDCK-MDR1 assay (permeability, efflux ratio); type: in vitro ADME; details: dog, Papp BA/Papp AB, 60-minute incubation
Description: The permeability of the test compounds was assessed in MDCK-MDR1 cells that were cultured to confluency (4-6 days) in a 96 transwell plate. Test compounds were diluted with the transport buffer (HBSS+1% BSA) to a concentration of 0.5 μM and applied to the apical or basolateral side of the cell monolayer. Permeation of the test compounds from A to B direction or B to A direction was determined in triplicate over a 60-minute incubation time at 37° C. and 5% CO2 with a relative humidity of 95%. Test compounds were quantified by LC-MS/MS analysis based on the peaks area ratios of analyte/IS in both the receiver and donor wells of the transwell plate. The apparent permeability coefficient Papp (cm/s) was calculated using the equation: […]
Where dCr/dt is the cumulative concentration of compound in the receiver chamber as a function of time (μM/s); Vr is the solution volume in the receiver chamber (0.05 mL on the apical side; 0.25 mL on the basolateral side); A is the surface area for the transport, i.e. 0.0804 cm^2 for the area of the monolayer; CO is the initial concentration in the donor chamber (μM).

human BACE1 [1] = target: T1, human BACE1 (Homo sapiens, UniProt P56817); experiment: BACE1 binding assay (SPA-based radioligand binding); parameters: biotin (biotinylated form); made in house; host or cells: Freestyle HEK293 cells; details: pH 4.5, 10 nM radioligand, Ki=IC50/(1+L/Kd)
Description: The binding assay was performed as SPA-based assay using a biotinylated form of human BACE1 recombinantly expressed and subsequently purified from Freestyle HEK293 cells. The binding assay was run in a 50 mM sodium acetate buffer, pH 4.5 containing 50 mM NaCl and 0.03% Tween-20 in white clear bottom 384 plates (Corning #3653). 10 nM (final concentration) radioligand ([^3H]—N-((1S,2R)-1-benzyl-3-cyclopropylamino-2-hydroxy-propyl)-5-(methanesulfonyl-methyl-amino)-N—((R)-1-phenyl-ethyl)-isophthalamide) (TRQ11569 purchased from GE Healthcare) was mixed with test compound at a given concentration, 6 nM (final concentration) human BACE1 and 25 μg Streptavidin coated PVT core SPA beads (RPNQ0007, GE Healthcare Life Sciences) in a total volume of 40 μl. Several concentrations of each test compound were tested in the assay for […] determination. The plates were incubated for one hour at room temperature and counted in a Wallac Trilux counter. Total and non-specific binding were determined using buffer and 1 μM (final concentration) of the high affinity BACE1 reference inhibitor (S)-6-[3-chloro-5-(5-prop-1-ynyl-pyridin-3-yl)-thiophen-2-yl]-2-imino-3,6-dimethyl-tetrahydro-pyrimidin-4-one, respectively. For each test compound, a 1050 value (the concentration mediating 50% inhibition of the specific binding of the radioligand) was determined from concentration-response curve and used to calculate the Ki from the equation Ki=IC50/(1+L/Kd), where L and Kd are the final concentration of the radioligand used in the assay and the dissociation constant of the radioligand, respectively. The Kd of the radioligand was determined from saturation binding experiments.

[2] = Compound exposure in rat brain and plasma after oral dosing (DMPK analysis); type: in vivo; details: male, Sprague Dawley, 3 hours post dose; for concentration at 3 h: read-out: Exp (exposure); for Kp at 3 h: brain/plasma, read-out: Brain/Plasma ratio
Description: as §1, §2
The results of the administration of representative Compounds of Examples 1, 2, 5, […], of brain and plasma samples collected at 3 hours post dose and then following exposures, as described above, are tabulated below.

human BACE1 [3] = target: T1, human BACE1; experiment: BACE1 efficacy assay (FRET-based, commercial BACE1 kit); type: biochemical; parameters: purchased Life Technologies P2985; details: 10 μM test compound
Description: The efficacy assay was performed as a FRET-based assay using a commercially available BACE1 kit (Life Technologies, P2985). 2 μl test compound at 10 μM (final concentration) and 15 μl BACE1 enzyme from the kit (final concentration 3 nM) were preincubated for 15 minutes at room temperature before addition of 15 μl of substrate from the kit (250 nM final concentration) and incubated for additional 90 minutes at room temperature. The assay plate was subsequently read in a Pherastar (Ex540/Em590). The enzyme activity observed in presence of test compound were normalized to the enzyme activity observed in presence of buffer and 10 μM (final concentration) of the high affinity BACE1 reference inhibitor (S)-6-[3-Chloro-5-(5-prop-1-ynyl-pyridin-3-yl)-thiophen-2-yl]-2-imino-3,6-dimethyl-tetrahydropyrimidin-4-one, respectively. The efficacy of the test compounds was evaluated at 10 μM (final concentration) and defined as the percent inhibition of the enzyme activity using the equation % inhibition=100%−normalized enzyme activity in percent.

T1 sequence (P56817 46-501): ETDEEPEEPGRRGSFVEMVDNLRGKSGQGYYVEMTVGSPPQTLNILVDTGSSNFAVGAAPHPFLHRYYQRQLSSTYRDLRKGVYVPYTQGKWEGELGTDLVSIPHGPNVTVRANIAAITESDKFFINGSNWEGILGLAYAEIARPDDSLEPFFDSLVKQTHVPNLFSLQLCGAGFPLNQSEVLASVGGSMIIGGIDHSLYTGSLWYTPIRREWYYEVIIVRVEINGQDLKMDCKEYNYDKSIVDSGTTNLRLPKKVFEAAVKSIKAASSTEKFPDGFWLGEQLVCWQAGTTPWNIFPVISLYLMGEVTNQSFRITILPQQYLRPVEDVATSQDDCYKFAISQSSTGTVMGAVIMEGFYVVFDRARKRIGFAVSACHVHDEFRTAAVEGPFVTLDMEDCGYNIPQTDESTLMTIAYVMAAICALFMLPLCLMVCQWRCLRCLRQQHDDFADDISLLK

Row | efflux ratio at 60 min, 0.5 μM (P-gp (MDR1)) | Ki (human BACE1 [1]) | concentration at 3 h ([2]; Brain, 10 mg/kg p.o.) | concentration at 3 h ([2]; Brain, 30 mg/kg p.o.) | concentration at 3 h ([2]; Plasma, 10 mg/kg p.o.) | concentration at 3 h ([2]; Plasma, 30 mg/kg p.o.) | Kp at 3 h ([2]; 10 mg/kg p.o.) | Kp at 3 h ([2]; 30 mg/kg p.o.) | inhibition at 10 µM (human BACE1 [3]) | SMILES | Aβ40 reduction (Aβ40 peptide; Brain, 10 mg/kg p.o.) | Aβ40 reduction (Aβ40 peptide; Brain, 30 mg/kg p.o.) | Aβ40 reduction (Aβ40 peptide; Plasma, 10 mg/kg p.o.) | Aβ40 reduction (Aβ40 peptide; Plasma, 30 mg/kg p.o.)
1 | 1.27 | 31 nM | 37 ng/g | 136 ng/g | 69 ng/g | 244 ng/g | 0.54 | 0.56 |  | C[C@]1(F)C[C@]2(F)COC[C@]2(c2cc(NC(=O)c3ccc(F)cn3)ccc2F)N=C1N [Example 2, N-(3-((3S,4aR,7aS)-2-amino-3,4a-difluoro-3-methyl-3,4,4a,5,7,7a-hexahydrofuro[3,4-b]pyridin-7a-yl)-4-fluorophenyl)-5-fluoropicolinamide] | 25% | 24% | 48% | 47%
2 | 0.91 | 17 nM | 204 ng/g | 695 ng/g | 174 ng/g | 598 ng/g | 1.17 | 1.16 |  | COc1cnc(C(=O)Nc2ccc(F)c([C@]34COC[C@@]3(F)C[C@](C)(F)C(N)=N4)c2)cn1 [Example 5, N-(3-((3S,4aR,7aS)-2-amino-3,4a-difluoro-3-methyl-3,4,4a,5,7,7a-hexahydrofuro[3,4-b]pyridin-7a-yl)-4-fluorophenyl)-5-methoxypyrazine-2-carboxamide] | 40% | 47% | 41% | 45%
3 | 1.67 | 24 nM |  |  |  |  |  |  | 103% | C[C@@]1(F)C[C@]2(F)COC[C@]2(c2cc(NC(=O)c3ccc(F)cn3)ccc2F)N=C1N [Example 12, N-(3-((3R,4aR,7aS)-2-amino-3,4a-difluoro-3-methyl-3,4,4a,5,7,7a-hexahydrofuro[3,4-b]pyridin-7a-yl)-4-fluorophenyl)-5-fluoropicolinamide] |  |  |  | 
4 | 1.19 | 65 nM |  |  |  |  |  |  | 111% | COc1ccc(C(=O)Nc2ccc(F)c([C@]34COC[C@H]3C[C@](F)(CF)C(N)=N4)c2)nc1 [Example 15, N-(3-((3R,4aS,7aS)-2-amino-3-fluoro-3-(fluoromethyl)-3,4,4a,5-tetrahydrofuro[3,4-b]pyridin-7a-yl)-4-fluorophenyl)-5-methoxypicolinamide] |  |  |  | 
5 | 0.97 | 88 nM |  |  |  |  |  |  | 110% | NC1=N[C@@]2(c3cc(NC(=O)c4ccc(F)cn4)ccc3F)COC[C@H]2C[C@]1(F)CF [Example 16, N-(3-((3R,4aS,7aS)-2-amino-3-fluoro-3-(fluoromethyl)-3,4,4a,5-tetrahydrofuro[3,4-b]pyridin-7a-yl)-4-fluorophenyl)-5-fluoropicolinamide] |  |  |  | 
6 | 1.25 | 99 nM |  |  |  |  |  |  | 105% | COc1ccc(C(=O)Nc2cc(F)c(F)c([C@]34COC[C@H]3C[C@](F)(CF)C(N)=N4)c2)nc1 [Example 17, N-[3-[(3R,4aS,7aS)-2-amino-3-fluoro-3-(fluoromethyl)-4,4a,5,7-tetrahydrofuro[3,4-b]pyridin-7a-yl]-4,5-difluoro-phenyl]-5-methoxy-pyridine-2-carboxamide] |  |  |  | 
7 | 1.31 | 110 nM |  |  |  |  |  |  | 105% | COc1cnc(C(=O)Nc2cc(F)c(F)c([C@]34COC[C@H]3C[C@](F)(CF)C(N)=N4)c2)cn1 [Example 18, N-[3-[(3R,4aS,7aS)-2-amino-3-fluoro-3-(fluoromethyl)-4,4a,5,7-tetrahydrofuro[3,4-b]pyridin-7a-yl]-4,5-difluoro-phenyl]-5-methoxy-pyrazine-2-carboxamide] |  |  |  | 
8 | 0.71 | 140 nM |  |  |  |  |  |  | 103% | NC1=N[C@@]2(c3cc(NC(=O)c4ccc(F)cn4)ccc3F)COC[C@H]2C[C@@]1(F)CF [Example 20, N-(3-((3S,4aS,7aS)-2-amino-3-fluoro-3-(fluoromethyl)-3,4,4a,5-tetrahydrofuro[3,4-b]pyridin-7a-yl)-4-fluorophenyl)-5-fluoropicolinamide] |  |  |  | 
